Assays:
[1] = test system: lambsquarters; experiment: Test B pre-/postemergence herbicide test; type: in vivo, Chenopodium album
Method in brief: (§1)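 Evaluation is visual, comparing treated with control plants on a scale where 0 means no effect and 100 means full control. Treatments were preemergence, or postemergence on seedlings 2–18 cm tall, and held 13–15 days in the greenhouse.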

[2] = test system: giant foxtail; experiment: Test B pre-/postemergence herbicide test; type: in vivo, Setaria faberi
Method in brief: as §1

[3] = test system: velvetleaf; experiment: Test B pre-/postemergence herbicide test; type: in vivo, Abutilon theophrasti
Method in brief: as §1

[4] = test system: small flower umbrella sedge; experiment: Test B flooded paddy test; type: in vivo, Cyperus difformis; conditions: 1000 g ai/ha, scale 0 to 100 (0 no effect, 100 complete control)
Method in brief: (§2)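 After treating 2-leaf paddy plants or 2–18 cm postemergence plants (1 to 4 leaves) with formulated chemical, researchers kept them in a greenhouse for 13–15 days. Effects were judged visually versus controls: 0 indicates none, 100 total control.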

[5] = test system: barnyardgrass; experiment: Test B flooded paddy test; type: in vivo, Echinochloa crus-galli; conditions: 1000 g ai/ha, scale 0 to 100 (0 no effect, 100 complete control)
Method in brief: as §2

[6] = test system: pigweed; experiment: Test B pre-/postemergence herbicide test; type: in vivo, Amaranthus retroflexus
Method in brief: as §1

[7] = test system: ducksalad; experiment: Test B flooded paddy test; type: in vivo, Heteranthera limosa; conditions: 1000 g ai/ha, scale 0 to 100 (0 no effect, 100 complete control)
Method in brief: as §2

[8] = test system: blackgrass; experiment: Test B postemergence herbicide test; type: in vivo, Alopecurus myosuroides
Method in brief: as §2

[9] = test system: rice; experiment: Test B flooded paddy test; type: in vivo, Oryza sativa; conditions: 1000 g ai/ha, scale 0 to 100 (0 no effect, 100 complete control)
Method in brief: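 Each value is a visual 0–100 response rating taken against controls 13 to 15 days after treatment in the greenhouse. Plants received formulated chemical postemergence at the 1- to 4-leaf stage or, in flooded paddy, at the 2-leaf stage.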

[10] = test system: barnyardgrass; experiment: Test B pre-/postemergence herbicide test; type: in vivo, Echinochloa crus-galli
Method in brief: (§3)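 Flooded paddy rice and barnyardgrass were treated at the 2-leaf stage; upland plantings received compound either on sown seed or on 1- to 4-leaf seedlings. All were kept 13–15 days in a greenhouse and scored visually, 0–100, relative to untreated plants.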

[11] = test system: wild oat; experiment: Test B postemergence herbicide test; type: in vivo, Avena fatua
Method in brief: (§4)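 Formulated test chemicals went onto postemergence plants measuring 2 to 18 cm, at one to four leaves. For the paddy assay, species had reached two leaves. Scoring took place 13–15 days later by eye, relative to untreated plants, using 0 for no effect up to 100 for full control.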

[12] = test system: Surinam grass; experiment: Test B pre-/postemergence herbicide test; type: in vivo, Urochloa decumbens
Method in brief: as §1

[13] = test system: wheat; experiment: Test B postemergence herbicide test; type: in vivo, Triticum aestivum; parameters: key to Wheat plant response rating: 0 = no effect, 100 = complete control
Method in brief: as §4

[14] = test system: morningglory; experiment: Test B pre-/postemergence herbicide test; type: in vivo, Ipomoea coccinea
Method in brief: as §3

[15] = test system: cocklebur; experiment: Test B pre-/postemergence herbicide test; type: in vivo, Xanthium strumarium
Method in brief: as §3

[16] = Postemergence, 500 g ai/ha; visual rating after 13 to 15 days, scale 0 (no effect) to 100 (complete control)
[17] = postemergence, 125 g ai/ha; visual rating, scale 0 (no effect) to 100 (complete control)
[18] = preemergence, 125 g ai/ha; 0 to 100 scale, 0 is no effect, 100 is complete control
[19] = Postemergence, 500 g ai/ha, visual rating after 13 to 15 days, scale 0 (no effect) to 100 (complete control)
[20] = Preemergence, 500 g ai/ha, scale 0 to 100
[21] = postemergence, 125 g ai/ha, visual rating, scale 0 (no effect) to 100 (complete control)
[22] = preemergence, 125 g ai/ha, 0 to 100 scale, 0 is no effect, 100 is complete control
[23] = 125 g ai/ha; 0 = no effect, 100 = complete control; preemergence
[24] = 125 g ai/ha; visual rating, scale 0 (no effect) to 100 (complete control); postemergence
[25] = 500 g ai/ha; visual rating, 0 = no effect, 100 = complete control; preemergence
[26] = postemergence, 500 g ai/ha; scale 0 to 100, 0 is no effect, 100 is complete control
[27] = 125 g ai/ha, 0 = no effect, 100 = complete control, preemergence
[28] = 125 g ai/ha, visual rating, scale 0 (no effect) to 100 (complete control), postemergence
[29] = 500 g ai/ha, visual rating, 0 = no effect, 100 = complete control, preemergence
[30] = postemergence, 500 g ai/ha, scale 0 to 100, 0 is no effect, 100 is complete control

C#CCOC(=O)c1cccc(NC(=O)c2cc(C(C)(C)C)nn2CC)c1 [Compound 84]
Plant response rating, Lambsquarters [1, 16]: 60 | Lambsquarters plant response rating [1, 17]: 0 | Plant response rating, Lambsquarters [1, 18]: 0 | Plant response rating, Foxtail, Giant [2, 19]: 10 | Foxtail, Giant plant response rating [2, 20]: 0 | Foxtail, Giant plant response rating [2, 21]: 10 | Plant response rating, Foxtail, Giant [2, 22]: 0 | Plant response rating, Velvetleaf [3, 16]: 100 | Velvetleaf plant response rating [3, 17]: 60 | Plant response rating, Velvetleaf [3, 18]: 0 | Sedge, Umbrella plant response rating ([4]; visual rating, 13 to 15 days): 70 | Barnyardgrass plant response rating ([5]; visual rating, 13 to 15 days): 10 | Plant response rating, Pigweed [6, 16]: 100 | Pigweed plant response rating [6, 17]: 80 | Plant response rating, Pigweed [6, 18]: 0 | Ducksalad plant response rating ([7]; visual rating, 13 to 15 days): 20 | Plant response rating, Blackgrass [8, 16]: 10 | Blackgrass plant response rating [8, 17]: 0 | Rice plant response rating ([9]; visual rating, 13 to 15 days): 0 | Plant response rating, Barnyardgrass [10, 19]: 40 | Barnyardgrass plant response rating [10, 20]: 0 | Barnyardgrass plant response rating [10, 21]: 20 | Plant response rating, Barnyardgrass [10, 22]: 0 | Plant response rating, Oat, Wild [11, 16]: 20 | Oat, Wild plant response rating [11, 17]: 20 | Plant response rating, Surinam Grass [12, 16]: 60 | Surinam Grass plant response rating [12, 17]: 50 | Plant response rating, Surinam Grass [12, 18]: 0 | Plant response rating, Wheat [13, 16]: 30 | Wheat plant response rating [13, 17]: 20 | Plant response rating, Morningglory [14, 16]: 60 | Morningglory plant response rating [14, 17]: 30 | Plant response rating, Morningglory [14, 18]: 0 | Plant response rating, Cocklebur [15, 19]: 100 | Cocklebur plant response rating [15, 21]: 20 | Plant response rating, Cocklebur [15, 22]: 0

CCn1nc(C(C)(C)C)cc1C(=O)Nc1cccc(C(=O)NOC)c1 [Compound 67]
Plant response rating, Lambsquarters [1, 16]: 60 | Lambsquarters plant response rating [1, 17]: 40 | Plant response rating, Lambsquarters [1, 18]: 0 | Plant response rating, Foxtail, Giant [2, 19]: 10 | Foxtail, Giant plant response rating [2, 20]: 10 | Foxtail, Giant plant response rating [2, 21]: 10 | Plant response rating, Foxtail, Giant [2, 22]: 0 | Plant response rating, Velvetleaf [3, 16]: 10 | Velvetleaf plant response rating [3, 17]: 10 | Plant response rating, Velvetleaf [3, 18]: 0 | Sedge, Umbrella plant response rating ([4]; visual rating, 13 to 15 days): 80 | Barnyardgrass plant response rating ([5]; visual rating, 13 to 15 days): 60 | Plant response rating, Pigweed [6, 16]: 20 | Pigweed plant response rating [6, 17]: 0 | Plant response rating, Pigweed [6, 18]: 0 | Ducksalad plant response rating ([7]; visual rating, 13 to 15 days): 80 | Plant response rating, Blackgrass [8, 16]: 10 | Blackgrass plant response rating [8, 17]: 10 | Rice plant response rating ([9]; visual rating, 13 to 15 days): 60 | Plant response rating, Barnyardgrass [10, 19]: 10 | Barnyardgrass plant response rating [10, 20]: 80 | Barnyardgrass plant response rating [10, 21]: 10 | Plant response rating, Barnyardgrass [10, 22]: 0 | Plant response rating, Oat, Wild [11, 16]: 30 | Oat, Wild plant response rating [11, 17]: 10 | Plant response rating, Surinam Grass [12, 16]: 10 | Surinam Grass plant response rating [12, 17]: 10 | Plant response rating, Surinam Grass [12, 18]: 0 | Plant response rating, Wheat [13, 16]: 10 | Wheat plant response rating [13, 17]: 10 | Plant response rating, Morningglory [14, 16]: 10 | Morningglory plant response rating [14, 17]: 0 | Plant response rating, Morningglory [14, 18]: 0 | Plant response rating, Cocklebur [15, 19]: 70 | Cocklebur plant response rating [15, 20]: 0 | Cocklebur plant response rating [15, 21]: 0 | Plant response rating, Cocklebur [15, 22]: 0

CCn1nc(C2(C)CC2)cc1C(=O)Nc1cccc(C(=O)N2CC=CC2)c1 [Compound 304]
Lambsquarters plant response rating (0 to 100 scale) [1, 23]: 100 | Lambsquarters plant response rating [1, 24]: 80 | Plant response rating, Lambsquarters [1, 25]: 100 | Lambsquarters plant response rating [1, 26]: 90 | Foxtail, Giant plant response rating (0 to 100 scale) [2, 27]: 10 | Foxtail, Giant plant response rating [2, 28]: 30 | Plant response rating, Foxtail, Giant [2, 29]: 90 | Foxtail, Giant plant response rating [2, 30]: 30 | Velvetleaf plant response rating [3, 24]: 10 | Plant response rating, Velvetleaf [3, 25]: 100 | Velvetleaf plant response rating [3, 26]: 60 | Sedge, Umbrella plant response rating [4]: 90 | Barnyardgrass plant response rating [5]: 80 | Pigweed plant response rating (0 to 100 scale) [6, 23]: 100 | Pigweed plant response rating [6, 24]: 90 | Plant response rating, Pigweed [6, 25]: 100 | Pigweed plant response rating [6, 26]: 90 | Ducksalad plant response rating [7]: 90 | Blackgrass plant response rating [8, 24]: 10 | Blackgrass plant response rating [8, 26]: 40 | Rice plant response rating [9]: 90 | Barnyardgrass plant response rating (0 to 100 scale) [10, 27]: 10 | Barnyardgrass plant response rating [10, 28]: 20 | Plant response rating, Barnyardgrass [10, 29]: 70 | Barnyardgrass plant response rating [10, 30]: 20 | Oat, Wild plant response rating [11, 24]: 30 | Oat, Wild plant response rating [11, 26]: 40 | Surinam Grass plant response rating (0 to 100 scale) [12, 23]: 10 | Surinam Grass plant response rating [12, 24]: 0 | Plant response rating, Surinam Grass [12, 25]: 70 | Surinam Grass plant response rating [12, 26]: 10 | Wheat plant response rating [13, 24]: 10 | Wheat plant response rating [13, 26]: 20 | Morningglory plant response rating (0 to 100 scale) [14, 23]: 10 | Morningglory plant response rating [14, 24]: 100 | Plant response rating, Morningglory [14, 25]: 10 | Morningglory plant response rating [14, 26]: 100 | Cocklebur plant response rating (0 to 100 scale) [15, 27]: 0 | Cocklebur plant response rating [15, 28]: 0 | Plant response rating, Cocklebur [15, 29]: 0 | Cocklebur plant response rating [15, 30]: 100

Reference: patent publication US20060069132A1, “Azolecarboxamide herbicides” (priority 2004, published 2006)
